One substance from article PMC11091117, “A fluorescently-tagged tick kinin neuropeptide triggers peristalsis and labels tick midgut muscles” (Scientific Reports, 2024) can be followed below.

Test [1] deals with vector-only (V/O) CHO-K1 cells. Briefly: Confocal visualization on live vector-only cells with fluorescently labeled kinin peptide. The format is binding. The conditions noted are these: 10 µM labeled peptide, 1 min, HBSS, confocal Leica SP8. From the text: Three peptides were used in this study. These included: 1) the ligand for the endogenous tick kinin receptor from Rhipicephalus sanguineus, Rhisa-kinin 8 peptide of sequence GTGEDQAFSPWGamide (Rhisa-K-8; RK8; of identical sequence to Rhimi-K-8 in Rhipicephalus microplus)[48], 2) the same peptide but fluorescently labeled at the N-terminus with tetramethylrhodamine (TMR) a red fluorescent dye, designated TMR-Rhisa-K-8 (TMR-RK8), and 3) a labeled peptide synthesized with the scrambled sequence of the kinin ligand, designated TMR-Scrambled. The sequence of TMR-RK8 was TMR-C-GTGEDQAFSPWGamide). The TMR-Scrambled kinin (TMR-C-GTQWGPGFEADSamide) served as a negative control for tissue labeling. […]
The BMLK3 and V/O cells (5000–10,000 cells) were seeded separately in 200 µL selective media onto the two chambers of the cover glass (Lab-Tek Chambered Coverglass, 4.2 cm^2 area, #1.0 German borosilicate glass, sterile, Cat # 155,380, Thermo Fisher Scientific Inc., Walthams, MA) and grown in the incubator overnight at 37 °C and 5% CO2. The next day, cells would be ready for fluorescent labeling: the selective media was replaced with 200 µL HBSS to rinse the cells. […] Images were analyzed and computer-colored using Fiji/ImageJ (National Institutes of Health, Bethesda, MD). […]

For a further test, the system named is tick midgut. Briefly: Tick midgut contraction assay with EthoVision video analysis. The arrangement: species or system Rhipicephalus sanguineus. The source says: (§1) Individual female ticks were immobilized on a Petri dish filled with wax by submerging their legs in melted wax heated with a soldering pencil (Electronic Control Soldering Station EC 1000, Weller, Apex, North Carolina, USA). Females were dissected under physiological saline following the protocol described by Tidwell et al.[51]. The tick was cut along the edge of the scutum/alloscutum using a stainless steel #12 scalpel blade (Integra Miltex, York, PA, USA), after which the scutum was removed with a pair of fine forceps. To expose the midgut for removal, the tracheae, Malpighian tubules, ovaries, rectal sac, and synganglion were removed with fine forceps in that order. The midgut was then carefully removed and placed into 200 µL of fresh tick saline (See Reagents and Peptides) on a single gasketed incubation chamber (500 µL, Size 22 × 40 mm, Electron Microscopy Sciences, Hatfield, PA). The midguts were then rinsed three times with the physiological tick saline for subsequent fluorescent labeling or activity experiments.
Midguts were dissected from immobilized female ticks under tick saline, as described under the Midgut Dissection. Ten different midguts were used for each of the two treatments, and ticks were of the same age and batch and had been maintained under the same conditions. Dissected midguts were placed individually into 200 µL of tick saline for 10 min at 28 °C on a gasketed glass coverslip (500 µL, Size 22 × 40 mm) serving as incubation chamber. […] After the final wash and removal of saline, 200 µL of saline were added, and a microscopy coverslip (24 × 60 mm, VWR, Radnor, PA) was placed over the gasketed portion of the incubation chamber, which height (0.5 mm) fits to prevent the midgut from floating, but still allows midgut peristalsis. The midguts were observed and filmed under a dissecting microscope (Olympus SZ61, Japan) equipped with an Infinity 5 camera (Teledyne Lumenera, Ottawa, ON, Canada). All videos were recorded for 1 min with the INFINITY ANALYZE 7 software (Teledyne Lumenera) at 30 frames/second with a 2464 × 2056 resolution. The field of view in all videos recorded represents 4 × 3.5 mm to capture the entire tick midguts under saline. All video files in Windows Media Video (.wmv) format obtained from the Infinity Analyze 7 software were converted to the MP4 format using CloudConvert (cloudconvert.com, Lunaweb, Munich, Germany) for analyses with the EthoVision XT 17 software (Noldus Information Technology, Wageningen, The Netherlands).
We used the EthoVision 17 XT software to quantify the “activity” (pixel change) of the midguts from the videos recorded. This software defines activity as the percentage of pixels that have changed in the entire defined arena between the current image and previous image. The videos are recorded in 2464 × 2056 resolution and the arena is set to be the entire video screen. Video files were uploaded into the program and analyzed starting from time zero to the end of the 60 s video. Detection settings for activity included the activity threshold which was set to 5 to achieve zero detection when the midgut was immobile. Although the video captured 30 frames (images) per s, for the video analysis we chose a “sample rate” of 7 samples /s, with sample rate being the number of images from the video the EthoVision program analyzes per second. To calculate activity, each pixel of the video image was compared from one image to the next, and the proportion of pixel changes was calculated by dividing the number of pixels changed from one image to the next by the total number of pixels in the image. Care was given for the midgut to occupy most of the arena, as the activity analyses will reflect the midgut movement as a proportion of the total arena. Midgut activity is observed as pixel changes, which are represented by the red-colored pixels in the S4 video. The mean pixel change per midgut was then determined by averaging the pixel changes from all samples within the recording period. […]

Test [2] has as its system tick kinin receptor in midgut muscles. Briefly: Fluorescent labeling of live midgut ex vivo, confocal microscopy. The class given is binding, Rhipicephalus sanguineus. The conditions noted are these: 10 µM labeled peptide, 1 min.
Source text: Three peptides were used in this study. These included: 1) the ligand for the endogenous tick kinin receptor from Rhipicephalus sanguineus, Rhisa-kinin 8 peptide of sequence GTGEDQAFSPWGamide (Rhisa-K-8; RK8; of identical sequence to Rhimi-K-8 in Rhipicephalus microplus)[48], 2) the same peptide but fluorescently labeled at the N-terminus with tetramethylrhodamine (TMR) a red fluorescent dye, designated TMR-Rhisa-K-8 (TMR-RK8), and 3) a labeled peptide synthesized with the scrambled sequence of the kinin ligand, designated TMR-Scrambled. The sequence of TMR-RK8 was TMR-C-GTGEDQAFSPWGamide). The TMR-Scrambled kinin (TMR-C-GTQWGPGFEADSamide) served as a negative control for tissue labeling. All peptides were custom-synthesized and purchased from GenScript (Piscataway, NJ, USA) with a purity of ≥ 95% and the cysteine in bold in both sequences was added to attach the label. Experiments were replicated with independently synthesized batches (4 mg each) of labeled and unlabeled peptides, for reproducibility. Unlabeled RK8 was used as a competitive ligand to verify target-specific binding of the labeled TMR-RK8 (see Ligand Competition Assay). For cell assays, the peptide stock solutions (100 µM) were made in 1% dimethyl sulfoxide (DMSO) in Hank’s balanced salt solution (HBSS, Thermo Fisher, Waltham, USA). For fluorescent cell labeling, peptide working solutions (10 µM) were prepared in HBSS from stock solutions. For assays on the midgut, peptides were solubilized and diluted in a tick physiological saline consisting of 140 mM NaCl, 5 mM KCl, 1 mM MgCl2, 5 mM CaCl2, 4 mM NaHCO3, and 5 mM HEPES, pH 7.2[49].
as §1
To determine the location of the tick kinin receptor in the midgut of ticks, a commercially synthesized Rhisa-kinin peptide 8[52] conjugated with a stable, red fluorophore (TMR-RK8) or a similarly labeled peptide of scrambled sequence (TMR-Scrambled) were applied to freshly dissected midguts ex vivo. For this, midguts of unfed adult females were incubated in ice-cold saline for 10 min. The saline was removed before incubation in 200 µL of 4’,6-diamidino-2-phenylindole dihydrochloride (DAPI, Sigma, 1 µg/mL in saline) for 1 min and rinsed with saline (200 µL) once. After saline removal, the midgut was incubated for 1 min with 200 µL of 10 µM of either TMR-Scrambled kinin or TMR-RK8, then the labeled peptide solution was removed by pipette and the midgut was rinsed twice with 200 µL saline. […]

Entries after “also recorded” stand apart in the source; their conditions may differ.

On to TMR-C-GTQWGPGFEADSamide [TMR-Scrambled], for which the “labeling of vector-only cells (in words)” value in test [1] is “not labeled by either peptide”. In addition, in the test with tick midgut (1 µM TMR-Scrambled, after 10 min of exposure, 4X speed), the “midgut contractions, S5 Video (in words)” value is reported as “did not induce contractions”. Further, the “midgut peristalsis/contractions (in words)” value with tick midgut (10 µM, 1 min, 28 °C, midguts of unfed females ex vivo, video recorded 1 min) is recorded as “did not elicit peristalsis; also recorded: low to imperceptible activity; also recorded: did not display significant activity”. Also, the “mean activity (mean pixel change, percentage of pixels changed in arena)” value in the test with tick midgut (10 µM, 1 min, rinsed twice, 28 °C, tick saline, 60 s video, 7 samples/s, EthoVision XT 17, activity threshold 5, N = 10 midguts) is on record as “less than 0.1%”. Further, in test [2] (midguts ex vivo, Z-slices under the surface), the “non-specific labeling below midgut surface (in words)” value is “non-specific aggregation in lipid vesicles beneath the midgut surface; also recorded: non-specific labeling observed in lipid vesicles inside the midgut”. The “labeling of midgut surface muscles (in words)” value in test [2] (tick saline pH 7.2, midguts of unfed females ex vivo, DAPI and Alexa 488-phalloidin, confocal 20X/40X) is on record as “did not significantly bind to the surface of the tick midgut; also recorded: did not show specific binding to the midgut of ticks; also recorded: specific muscle surface staining was not observed; also recorded: No signal; also recorded: grid-like fluorescent pattern was not observed”.
